This note sets out measurements from the Kinase Knowledgebase extract (Sharma et al. 2016).

One may read the IC50 as the point on the concentration scale where inhibition reaches its midpoint. A higher IC50 goes with a need for much substance.

For experiment [1], the target named is PIK3CA (human) (UniProt P42336). In words: Cell-Based Assay. As to conditions: rat-1.
Experiment [2] has as its target PIK3CG (human) (UniProt P48736). In words: Cell-Based Assay. To be noted: u937.
The target of experiment [3] is PIK3CD (Human) (UniProt O00329). Put plainly: Cell-Based Assay. To be noted: rat-1.
PIK3CD (Human), sequence (O00329 whole entry, looked up): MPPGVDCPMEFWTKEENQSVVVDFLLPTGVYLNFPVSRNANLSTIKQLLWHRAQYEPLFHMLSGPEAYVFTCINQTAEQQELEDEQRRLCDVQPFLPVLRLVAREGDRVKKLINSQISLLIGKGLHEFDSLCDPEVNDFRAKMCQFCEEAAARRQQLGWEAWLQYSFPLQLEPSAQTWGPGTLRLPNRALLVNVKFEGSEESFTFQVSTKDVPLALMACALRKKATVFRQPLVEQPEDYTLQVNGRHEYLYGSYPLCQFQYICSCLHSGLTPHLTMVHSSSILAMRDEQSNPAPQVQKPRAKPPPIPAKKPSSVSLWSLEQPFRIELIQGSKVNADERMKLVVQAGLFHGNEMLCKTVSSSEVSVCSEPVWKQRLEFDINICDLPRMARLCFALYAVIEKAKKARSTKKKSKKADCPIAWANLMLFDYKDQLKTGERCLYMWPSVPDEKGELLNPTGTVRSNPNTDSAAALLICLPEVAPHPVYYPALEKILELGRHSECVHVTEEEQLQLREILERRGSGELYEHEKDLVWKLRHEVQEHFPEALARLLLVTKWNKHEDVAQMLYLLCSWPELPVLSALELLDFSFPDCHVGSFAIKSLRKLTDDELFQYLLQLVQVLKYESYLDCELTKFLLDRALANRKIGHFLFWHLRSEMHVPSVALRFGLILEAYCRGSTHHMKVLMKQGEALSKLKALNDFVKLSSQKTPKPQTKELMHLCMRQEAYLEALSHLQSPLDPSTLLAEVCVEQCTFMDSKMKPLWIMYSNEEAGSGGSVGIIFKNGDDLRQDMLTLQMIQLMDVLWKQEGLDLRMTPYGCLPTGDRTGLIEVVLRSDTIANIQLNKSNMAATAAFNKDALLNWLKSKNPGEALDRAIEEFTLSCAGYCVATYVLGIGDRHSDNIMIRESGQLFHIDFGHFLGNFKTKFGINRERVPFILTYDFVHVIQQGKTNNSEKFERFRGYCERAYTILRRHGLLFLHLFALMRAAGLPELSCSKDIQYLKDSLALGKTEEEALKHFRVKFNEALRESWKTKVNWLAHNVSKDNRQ
Experiment [4] concerns the target PIK3CA (human) (UniProt P42336). Put plainly: Enzyme Assay.
For experiment [5], the target named is PIK3CG (human) (UniProt P48736). In words: Enzyme Assay.
PIK3CG (human), sequence (P48736 whole entry, looked up): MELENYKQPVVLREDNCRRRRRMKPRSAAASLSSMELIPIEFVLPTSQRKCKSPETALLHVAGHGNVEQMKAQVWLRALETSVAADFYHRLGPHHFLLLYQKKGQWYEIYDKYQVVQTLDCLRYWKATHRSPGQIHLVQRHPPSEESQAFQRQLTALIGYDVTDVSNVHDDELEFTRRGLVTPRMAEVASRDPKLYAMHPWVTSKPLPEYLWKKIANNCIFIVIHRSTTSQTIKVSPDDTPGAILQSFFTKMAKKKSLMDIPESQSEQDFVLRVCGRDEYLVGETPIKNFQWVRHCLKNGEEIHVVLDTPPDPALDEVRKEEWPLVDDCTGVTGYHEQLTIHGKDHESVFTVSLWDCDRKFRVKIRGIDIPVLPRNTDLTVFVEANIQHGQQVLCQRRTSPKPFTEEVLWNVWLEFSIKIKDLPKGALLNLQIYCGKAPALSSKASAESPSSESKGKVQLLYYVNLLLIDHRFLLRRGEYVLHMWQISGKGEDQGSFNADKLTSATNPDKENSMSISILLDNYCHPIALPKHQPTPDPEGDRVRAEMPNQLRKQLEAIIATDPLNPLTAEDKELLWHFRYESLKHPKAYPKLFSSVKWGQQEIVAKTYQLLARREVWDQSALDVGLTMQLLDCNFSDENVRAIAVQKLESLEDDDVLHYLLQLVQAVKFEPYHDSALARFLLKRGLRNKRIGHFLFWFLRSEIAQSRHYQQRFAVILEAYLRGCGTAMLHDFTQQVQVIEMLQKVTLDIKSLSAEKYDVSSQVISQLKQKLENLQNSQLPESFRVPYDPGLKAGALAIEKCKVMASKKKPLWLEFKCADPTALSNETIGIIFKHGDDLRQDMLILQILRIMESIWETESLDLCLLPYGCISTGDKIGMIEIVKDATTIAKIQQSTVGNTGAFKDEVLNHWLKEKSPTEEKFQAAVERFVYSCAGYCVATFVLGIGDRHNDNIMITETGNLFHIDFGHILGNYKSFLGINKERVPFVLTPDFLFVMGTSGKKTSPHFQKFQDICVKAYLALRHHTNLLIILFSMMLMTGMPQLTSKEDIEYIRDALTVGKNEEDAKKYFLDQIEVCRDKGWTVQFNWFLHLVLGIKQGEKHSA
The target in experiment [6] is PIK3CD (Human) (UniProt O00329). In words: Enzyme Assay.

PIK3CA (human), sequence (P42336 whole entry, looked up): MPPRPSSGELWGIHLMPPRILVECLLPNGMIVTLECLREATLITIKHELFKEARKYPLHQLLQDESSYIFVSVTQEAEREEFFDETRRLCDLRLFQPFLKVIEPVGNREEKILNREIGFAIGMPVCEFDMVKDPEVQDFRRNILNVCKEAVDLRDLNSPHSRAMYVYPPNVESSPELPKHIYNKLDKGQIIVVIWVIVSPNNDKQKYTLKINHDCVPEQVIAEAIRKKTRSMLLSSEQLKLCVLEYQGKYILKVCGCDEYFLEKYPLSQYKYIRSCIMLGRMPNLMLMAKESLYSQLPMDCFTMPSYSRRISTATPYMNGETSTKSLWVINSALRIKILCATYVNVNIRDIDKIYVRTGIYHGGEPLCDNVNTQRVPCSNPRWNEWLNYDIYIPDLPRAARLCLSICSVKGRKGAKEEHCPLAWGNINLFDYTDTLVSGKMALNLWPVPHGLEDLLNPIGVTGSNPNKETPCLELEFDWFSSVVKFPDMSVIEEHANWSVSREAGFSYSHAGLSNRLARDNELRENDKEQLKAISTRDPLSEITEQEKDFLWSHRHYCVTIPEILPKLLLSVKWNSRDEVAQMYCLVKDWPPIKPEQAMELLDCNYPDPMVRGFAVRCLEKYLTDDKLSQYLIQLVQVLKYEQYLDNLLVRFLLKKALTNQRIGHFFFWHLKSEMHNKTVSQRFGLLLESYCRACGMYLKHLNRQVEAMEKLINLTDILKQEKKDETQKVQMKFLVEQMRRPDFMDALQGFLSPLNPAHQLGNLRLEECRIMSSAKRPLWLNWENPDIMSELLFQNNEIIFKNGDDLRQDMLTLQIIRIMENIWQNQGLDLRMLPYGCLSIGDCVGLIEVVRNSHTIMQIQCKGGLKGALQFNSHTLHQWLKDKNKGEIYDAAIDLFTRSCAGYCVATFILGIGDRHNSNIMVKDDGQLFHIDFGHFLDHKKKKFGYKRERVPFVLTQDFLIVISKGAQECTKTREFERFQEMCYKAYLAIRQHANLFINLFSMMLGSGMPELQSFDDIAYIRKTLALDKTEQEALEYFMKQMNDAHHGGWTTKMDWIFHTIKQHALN

Take `CO[C@H]1C[C@@H](c2nc3cccc(Cl)c3c(=O)n2-c2ccccc2)N(c2ncnc(N)c2C#N)C1`: the IC50 against PIK3CA (human) [1] is 4.04 µM; against PIK3CG (human) [2], 0.209 µM; on PIK3CD (Human) [3] it was 0.01 µM; at PIK3CA (human) [4], 1.3 µM; on PIK3CG (human) [5] it was 0.035 µM; on PIK3CD (Human) [6] it was 0.004 µM.
On to `Cc1nc(N)nc(N2C[C@@H](O)C[C@H]2c2nc3ccc(F)c(F)c3c(=O)n2-c2ccccc2)c1C#N`, for which the half-maximal inhibitory concentration (IC50) is 7.13 µM against PIK3CA (human) [1]; 0.033 µM against PIK3CG (human) [2]; 0.03 µM against PIK3CD (Human) [3]; 0.7 µM at PIK3CA (human) [4]; 0.097 µM against PIK3CG (human) [5]; 0.043 µM against PIK3CD (Human) [6].
Regarding `Nc1nc(N2CCC[C@H]2c2nc3cccc(C(F)(F)F)c3c(=O)n2-c2ccccc2)c2nccn2n1`, the IC50 was above 10 µM against PIK3CA (human) [1]; 0.312 µM on PIK3CG (human) [2]; 8.04 µM against PIK3CD (Human) [3]; 2.8 µM on PIK3CA (human) [4]; 0.093 µM on PIK3CG (human) [5]; 0.067 µM at PIK3CD (Human) [6].
With `Nc1nc(N2CCC[C@H]2c2nc3cccc(Cl)c3c(=O)n2N2CCOCC2)c2nccn2n1`, the IC50 on PIK3CA (human) [1] is above 10 µM; on PIK3CG (human) [2] it was 0.399 µM; against PIK3CD (Human) [3], 0.13 µM; at PIK3CA (human) [4], 2.6 µM; against PIK3CG (human) [5], 0.19 µM; against PIK3CD (Human) [6], 0.022 µM.
Regarding `COc1cccc2nc([C@@H]3CCCN3c3ncnc(N)c3C#N)n(-c3ccccc3)c(=O)c12`, the IC50 at PIK3CA (human) [1] was above 10 µM; against PIK3CG (human) [2], 0.382 µM; at PIK3CD (Human) [3], above 10 µM; against PIK3CA (human) [4], above 10 µM; against PIK3CG (human) [5], 5.2 µM; against PIK3CD (Human) [6], 0.076 µM.
On to `Cc1nc(N)nc(N2C[C@@H](O)C[C@H]2c2nc3cccc(C(F)(F)F)c3c(=O)n2-c2cc(F)cc(F)c2)c1C#N`, for which the IC50 against PIK3CA (human) [1] was 8.84 µM; on PIK3CG (human) [2], 0.06 µM; against PIK3CD (Human) [3] it was 0.042 µM; at PIK3CA (human) [4], 3.1 µM; against PIK3CG (human) [5] it was 0.89 µM; against PIK3CD (Human) [6] it was 0.097 µM.
Turning to `Cc1nc(N)nc(N2C[C@@H](F)C[C@H]2c2nc3cccc(C(F)(F)F)c3c(=O)n2-c2cccnc2)c1C#N`, the IC50 at PIK3CA (human) [1] was determined as 4.2 µM; on PIK3CG (human) [2], 0.053 µM; at PIK3CD (Human) [3], 0.023 µM; at PIK3CA (human) [4], 1.3 µM; on PIK3CG (human) [5], 0.035 µM; against PIK3CD (Human) [6], 0.026 µM.
On to `N#Cc1c(N)ncnc1N1C[C@@H](O)C[C@H]1c1nc2ccc(F)c(F)c2c(=O)n1-c1ccccc1`, for which the IC50 was above 10 µM against PIK3CA (human) [1]; 1.59 µM at PIK3CG (human) [2]; 0.045 µM against PIK3CD (Human) [3]; 4 µM against PIK3CA (human) [4]; 1.3 µM against PIK3CG (human) [5]; 0.096 µM at PIK3CD (Human) [6].
On to `N#Cc1c(N)ncnc1N1C[C@@H](F)C[C@H]1c1nc2cccc(C(F)(F)F)c2c(=O)n1-c1ccccc1`, for which the IC50 is 0.766 µM against PIK3CA (human) [1]; 0.031 µM at PIK3CG (human) [2]; 0.01 µM against PIK3CD (Human) [3]; 2.4 µM at PIK3CA (human) [4]; 0.055 µM against PIK3CG (human) [5]; 0.008 µM against PIK3CD (Human) [6].
With `O=c1c2c(Cl)cccc2nc([C@@H]2C[C@H](O)CN2c2ncnc3[nH]cnc23)n1-c1ccccc1`, the IC50 on PIK3CA (human) [1] was found to be 4.31 µM; on PIK3CG (human) [2], 0.178 µM; at PIK3CD (Human) [3], 0.021 µM; on PIK3CA (human) [4], 1.4 µM; against PIK3CG (human) [5], 0.019 µM; against PIK3CD (Human) [6] it was 0.005 µM.
Consider `O=c1c2c(C(F)(F)F)cccc2nc([C@@H]2C[C@H](O)CN2c2ncnc3[nH]cnc23)n1-c1ccccc1`, for which the IC50 against PIK3CA (human) [1] was 7.22 µM; at PIK3CG (human) [2] it was 0.034 µM; at PIK3CD (Human) [3], 0.091 µM; against PIK3CA (human) [4], 1.4 µM; against PIK3CG (human) [5], 0.21 µM; at PIK3CD (Human) [6], 0.016 µM.
Turning to `CO[C@H]1C[C@@H](c2nc3cccc(Cl)c3c(=O)n2-c2ccccc2)N(c2nc(N)nn3ccnc23)C1`, the IC50 was above 10 µM on PIK3CA (human) [1]; 0.793 µM on PIK3CG (human) [2]; 0.204 µM against PIK3CD (Human) [3]; 7.2 µM against PIK3CA (human) [4]; 0.078 µM on PIK3CG (human) [5]; 0.14 µM on PIK3CD (Human) [6].
Turning to `Cc1nc(N)nc(N2C[C@@H](O)C[C@H]2c2nc3cccc(C(F)(F)F)c3c(=O)n2N2CCOCC2)c1C#N`, the IC50 was 4.59 µM against PIK3CA (human) [1]; 0.083 µM on PIK3CG (human) [2]; 0.092 µM against PIK3CD (Human) [3]; 2 µM on PIK3CA (human) [4]; 0.1 µM at PIK3CG (human) [5]; 0.066 µM on PIK3CD (Human) [6].
In the case of `CS(=O)(=O)c1c(F)ccc2nc([C@@H]3CCCN3c3ncnc(N)c3C#N)n(-c3ccccc3)c(=O)c12`, the IC50 against PIK3CA (human) [1] is above 10 µM; on PIK3CG (human) [2] it was above 10 µM; at PIK3CD (Human) [3], 0.065 µM; against PIK3CA (human) [4] it was 4.5 µM; against PIK3CG (human) [5] it was 7.2 µM; at PIK3CD (Human) [6], 0.084 µM.
`CO[C@H]1C[C@@H](c2nc3cccc(C(F)(F)F)c3c(=O)n2N2CCOCC2)N(c2ncnc(N)c2C#N)C1`: the IC50 against PIK3CA (human) [1] was above 10 µM; on PIK3CG (human) [2], 1.89 µM; at PIK3CD (Human) [3], 0.117 µM; on PIK3CA (human) [4], above 10 µM; on PIK3CG (human) [5] it was 1.9 µM; against PIK3CD (Human) [6] it was 0.053 µM.
`O=c1c2c(Cl)cccc2nc([C@@H]2CCCN2c2ncnc3scnc23)n1-c1ccccc1`: the IC50 on PIK3CA (human) [1] worked out at 4.69 µM; at PIK3CG (human) [2] it was 0.215 µM; against PIK3CD (Human) [3], 0.051 µM; on PIK3CA (human) [4], 5.1 µM; against PIK3CG (human) [5] it was 0.081 µM; against PIK3CD (Human) [6], 0.004 µM.
Take `N#Cc1c(N)ncnc1N1CCC[C@H]1c1nc2cccc(C(F)(F)F)c2c(=O)n1-c1ccccc1`: the IC50 at PIK3CA (human) [1] was above 10 µM; at PIK3CG (human) [2], 0.261 µM; against PIK3CD (Human) [3], 0.062 µM; at PIK3CA (human) [4], 2.8 µM; against PIK3CG (human) [5], 0.14 µM; against PIK3CD (Human) [6], 0.012 µM.
In the case of `Cc1nc(N)nc(N2C[C@@H](O)C[C@H]2c2nc3ccc(F)c(C4CC4)c3c(=O)n2-c2ccccc2)c1C#N`, the IC50 against PIK3CA (human) [1] amounted to 2.37 µM; on PIK3CG (human) [2], 0.035 µM; against PIK3CD (Human) [3] it was 0.006 µM; against PIK3CA (human) [4] it was 0.11 µM; at PIK3CG (human) [5] it was 0.011 µM; against PIK3CD (Human) [6], 0.004 µM.
Consider `Cc1nc(N)nc(N2CCC[C@H]2c2nc3ccc(F)c(S(C)(=O)=O)c3c(=O)n2-c2ccccc2)c1C#N`, for which the IC50 on PIK3CA (human) [1] was above 10 µM; against PIK3CG (human) [2] it was 1.58 µM; against PIK3CD (Human) [3], 0.103 µM; on PIK3CA (human) [4], 5.5 µM; against PIK3CG (human) [5], 1.1 µM; at PIK3CD (Human) [6], 0.038 µM.
On to `Cc1nc(N)nc(N2CCC[C@H]2c2nc3cccc(C(F)(F)F)c3c(=O)n2-c2cncc(F)c2)c1C#N`, for which the IC50 at PIK3CA (human) [1] was 8.74 µM; at PIK3CG (human) [2] it was 0.092 µM; against PIK3CD (Human) [3], 0.056 µM; against PIK3CA (human) [4] it was 4.5 µM; against PIK3CG (human) [5], 0.24 µM; at PIK3CD (Human) [6], 0.05 µM.
`N#Cc1c(N)ncnc1N1CCC[C@H]1c1nc2cccc(O)c2c(=O)n1-c1ccccc1`: the IC50 is above 10 µM against PIK3CA (human) [1]; 0.494 µM against PIK3CG (human) [2]; 0.015 µM on PIK3CD (Human) [3]; 1.43 µM against PIK3CA (human) [4]; 0.11 µM against PIK3CG (human) [5]; 0.003 µM at PIK3CD (Human) [6].
On to `N#Cc1c(N)nc(N)nc1N1CCC[C@H]1c1nc2cccc(C(F)(F)F)c2c(=O)n1-c1ccccc1`, for which the IC50 against PIK3CA (human) [1] worked out at 2.37 µM; against PIK3CG (human) [2], 0.035 µM; at PIK3CD (Human) [3], 0.006 µM; on PIK3CA (human) [4], 0.29 µM; against PIK3CG (human) [5] it was 0.052 µM; on PIK3CD (Human) [6] it was 0.046 µM.
